The subject of this experiment is L1210 leukemia ip in BDF1 mice, survival T/C. The experiment is described as follows: NCI In Vivo Anticancer Drug Screen. Data for tumor model L1210 Leukemia (intraperitoneal) in B6D2F1 (BDF1) mice. The following applies: endpoint: mean survival time, higher = longer survival. In outline:
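Each compound was tested against a transplantable tumor grown in mice. The endpoint was survival, with treated animals benchmarked against vehicle controls as a simple ratio.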

Where [1] appears, read: dose: 100.0 mg/kg/injection, schedule: Q01DX001 (ip), vehicle: saline.
The mark [2] stands for this setting: dose: 200.0 mg/kg/injection, schedule: Q01DX001 (ip), vehicle: saline.
Setting [3] is: dose: 400.0 mg/kg/injection, schedule: Q01DX001 (ip), vehicle: saline.
The mark [4] stands for this setting: dose: 100.0 mg/kg/injection, schedule: Q04DX003 (ip), vehicle: saline with Tween-80.
Where [5] appears, read: dose: 200.0 mg/kg/injection, schedule: Q04DX003 (ip), vehicle: saline with Tween-80.
The mark [6] stands for this setting: dose: 400.0 mg/kg/injection, schedule: Q04DX003 (ip), vehicle: saline with Tween-80.
[7] abbreviates: dose: 100.0 mg/kg/injection, schedule: Q04DX003 (ip), vehicle: Klucel (hydroxypropylcellulose) (HPC).
Setting [8] is: dose: 200.0 mg/kg/injection, schedule: Q04DX003 (ip), vehicle: Klucel (hydroxypropylcellulose) (HPC).
Setting [9] is: dose: 400.0 mg/kg/injection, schedule: Q04DX003 (ip), vehicle: Klucel (hydroxypropylcellulose) (HPC).
Setting [10] is: dose: 100.0 mg/kg/injection, schedule: Q01DX009 (ip), vehicle: saline with Tween-80.
[11] abbreviates: dose: 200.0 mg/kg/injection, schedule: Q01DX009 (ip), vehicle: saline with Tween-80.
Where [12] appears, read: dose: 400.0 mg/kg/injection, schedule: Q01DX009 (ip), vehicle: saline with Tween-80.
[13] abbreviates: dose: 50.0 mg/kg/injection, schedule: Q01DX001 (ip), vehicle: saline.
Where [14] appears, read: dose: 100.0 mg/kg/injection, schedule: Q01DX009 (ip), vehicle: Klucel (hydroxypropylcellulose) (HPC).
[15] abbreviates: dose: 100.0 mg/kg/injection, schedule: Q04DX003 (ip), vehicle: saline.
[16] abbreviates: dose: 100.0 mg/kg/injection, schedule: Q04DX002 (ip), vehicle: Klucel (hydroxypropylcellulose) (HPC).
Where [17] appears, read: dose: 200.0 mg/kg/injection, schedule: Q04DX002 (ip), vehicle: Klucel (hydroxypropylcellulose) (HPC).

We go through 17 compounds from PubChem BioAssay AID248 (DTP/NCI, 2004).

Each structure is given as a SMILES string. Where “and” joins values, the source holds several entries; their conditions need not be identical. Equal values may be shown once. Inconclusive results and toxic doses are left out.

`Nc1ccc2c(c1[N+](=O)[O-])C(=O)c1ccccc1C2=O`: the T/C runs as follows: under setting [1], 92 % of control; under setting [2], 95 % of control; under setting [3], 97 % of control.
With `S=C(S)Nc1ccc(Cc2ccc(NC(=S)S)cc2)cc1`, the T/C reads like this: under setting [4], 95 % of control; under setting [5], 91 % of control; under setting [6], 98 % of control.
On to `CCCCCCCCc1ccc(C(=O)O)cc1`, for which the T/C under setting [7] is 105 % of control, the T/C under setting [8] was 101 % of control and the T/C under setting [9] is 91 % of control.
`COC(=O)CCCCCC(O)C1CCC2OC(=O)CC21C` (stereo unspecified): the T/C under setting [10] is 95 % of control; the T/C under setting [7] was 94 % of control; the T/C under setting [11] is 95 % of control; the T/C under setting [8] is 100 % of control; the T/C under setting [12] was 91 % of control; the T/C under setting [9] is 93 % of control.
Regarding `CCCCCCCCCCCCCCCC[N+](C)(CCO)Cc1ccccc1` (stereo unspecified), under “dose: 12.5 mg/kg/injection, schedule: Q04DX002 (ip), vehicle: saline with Tween-80”, the T/C is 93 % of control.
For `CCC(CCc1ccc(OC)c(OC)c1)C(=O)O` (stereo unspecified), the T/C is 93 % of control (dose: 100.0 mg/kg/injection, schedule: Q01DX001 (ip), vehicle: saline with Tween-80); 98 % of control (dose: 200.0 mg/kg/injection, schedule: Q01DX001 (ip), vehicle: saline with Tween-80); 98 % of control (dose: 400.0 mg/kg/injection, schedule: Q01DX001 (ip), vehicle: saline with Tween-80).
In the case of `O=C(NCCCCNC(=O)Nc1cccc(C2=NCCCN2)c1)Nc1cccc(C2=NCCCN2)c1`, the T/C is 97 % of control (dose: 0.65 mg/kg/injection, schedule: Q01DX Z (ip), vehicle: carboxymethylcellulose (CMC)) and 97 % of control (dose: 1.3 mg/kg/injection, schedule: Q01DX Z (ip), vehicle: carboxymethylcellulose (CMC)).
For the compound `C[N+](C)(C)c1ccc(N=Nc2ccccn2)cc1`, the T/C under setting [13] is 113 % of control.
Consider `C=CCOCC(O)CN(C)CCCC` (stereo unspecified), for which the T/C is, setting by setting: (dose: 25.0 mg/kg/injection, schedule: Q04DX003 (ip), vehicle: saline) 101 % of control; (dose: 50.0 mg/kg/injection, schedule: Q01DX009 (ip), vehicle: Klucel (hydroxypropylcellulose) (HPC)) 100 % of control; (dose: 50.0 mg/kg/injection, schedule: Q04DX003 (ip), vehicle: saline) 97 % of control; under setting [14], 94 % of control; under setting [15], 103 % of control and 91 % of control.
`O=C(NN1C(=O)c2cccc3cccc(c23)C1=O)NN1C(=O)c2cccc3cccc(c23)C1=O`: the T/C runs as follows: under setting [16], 92 % of control; under setting [17], 92 % of control.
Turning to `CCC(=O)OCC1CCCO1` (stereo unspecified), the T/C runs as follows: under setting [14], 103 % of control; (dose: 200.0 mg/kg/injection, schedule: Q01DX009 (ip), vehicle: Klucel (hydroxypropylcellulose) (HPC)) 103 % of control; (dose: 400.0 mg/kg/injection, schedule: Q01DX009 (ip), vehicle: Klucel (hydroxypropylcellulose) (HPC)) 101 % of control.
`Cc1cnc(NC(N)=O)nc1-c1ccccc1O`: the T/C was 95 % of control under setting [16]; 91 % of control under setting [17]; 87 % of control (dose: 400.0 mg/kg/injection, schedule: Q04DX002 (ip), vehicle: Klucel (hydroxypropylcellulose) (HPC)).
As to `CCOC(=O)c1cc(C)nnc1C(=O)OCC`, the T/C was 104 % of control under setting [10]; 100 % of control (dose: 100.0 mg/kg/injection, schedule: Q01DX009 (ip), vehicle: saline); 97 % of control under setting [4]; 107 % of control under setting [15]; 104 % of control under setting [11]; 103 % of control (dose: 200.0 mg/kg/injection, schedule: Q01DX009 (ip), vehicle: saline). Also, the T/C reads like this: under setting [5], 106 % of control; (dose: 200.0 mg/kg/injection, schedule: Q04DX003 (ip), vehicle: saline) 112 % of control; under setting [12], 103 % of control; (dose: 400.0 mg/kg/injection, schedule: Q01DX009 (ip), vehicle: saline) 101 % of control; under setting [6], 101 % of control; (dose: 400.0 mg/kg/injection, schedule: Q04DX003 (ip), vehicle: saline) 98 % of control.
Turning to `CCc1ccc(C2=C(Cl)C(=O)C(c3ccc(CC)cc3)=C(Cl)C2=O)cc1`, the T/C is, setting by setting: (dose: 10.0 mg/kg/injection, schedule: Q01DX001 (ip), vehicle: carboxymethylcellulose (CMC)) 100 % of control; (dose: 20.0 mg/kg/injection, schedule: Q01DX001 (ip), vehicle: carboxymethylcellulose (CMC)) 100 % of control; (dose: 40.0 mg/kg/injection, schedule: Q01DX001 (ip), vehicle: carboxymethylcellulose (CMC)) 102 % of control; (dose: 80.0 mg/kg/injection, schedule: Q01DX001 (ip), vehicle: carboxymethylcellulose (CMC)) 100 % of control; (dose: 100.0 mg/kg/injection, schedule: Q01DX001 (ip), vehicle: carboxymethylcellulose (CMC)) 88 % of control.
With `Cc1c2cnccc2c(C)c2c1c1ccccc1n2CCCCCC#N`, the T/C by setting is: under setting [7], 100 % of control; under setting [8], 97 % of control; under setting [9], 100 % of control.
`CC1(C)CCC(NC(=O)N(CCF)N=O)CC1`: the T/C is 115 % of control (dose: 9.0 mg/kg/injection, schedule: Q01DX001 (ip), vehicle: other); 122 % of control (dose: 13.0 mg/kg/injection, schedule: Q01DX001 (ip), vehicle: other); 188 % of control (dose: 37.0 mg/kg/injection, schedule: Q01DX001 (ip), vehicle: other); 352 % of control (dose: 50.0 mg/kg/injection, schedule: Q01DX001 (ip), vehicle: other); 352 % of control (dose: 75.0 mg/kg/injection, schedule: Q01DX001 (ip), vehicle: other).
Consider `CNC(=S)N/N=C/C(C)=N/NC(=S)NC`, for which the T/C runs as follows: (dose: 4.0 mg/kg/injection, schedule: Q01DX Z (ip), vehicle: carboxymethylcellulose (CMC)) 102 % of control; (dose: 8.0 mg/kg/injection, schedule: Q01DX Z (ip), vehicle: carboxymethylcellulose (CMC)) 97 % of control; (dose: 10.0 mg/kg/injection, schedule: Q04DX003 (ip), vehicle: saline) 98 % of control; (dose: 16.0 mg/kg/injection, schedule: Q01DX Z (ip), vehicle: carboxymethylcellulose (CMC)) 95 % of control and 103 % of control; (dose: 20.0 mg/kg/injection, schedule: Q04DX003 (ip), vehicle: saline) 100 % of control; (dose: 31.0 mg/kg/injection, schedule: Q01DX Z (ip), vehicle: carboxymethylcellulose (CMC)) 95 % of control. In addition, the T/C reads like this: (dose: 40.0 mg/kg/injection, schedule: Q04DX003 (ip), vehicle: saline) 96 % of control; under setting [13], 86 % of control; (dose: 62.0 mg/kg/injection, schedule: Q01DX Z (ip), vehicle: carboxymethylcellulose (CMC)) 93 % of control and 100 % of control; (dose: 80.0 mg/kg/injection, schedule: Q04DX003 (ip), vehicle: saline) 93 % of control; under setting [1], 95 % of control; (dose: 125.0 mg/kg/injection, schedule: Q01DX Z (ip), vehicle: carboxymethylcellulose (CMC)) 90 % of control and 91 % of control. The T/C under setting [2] is 89 % of control; the T/C (dose: 250.0 mg/kg/injection, schedule: Q01DX Z (ip), vehicle: carboxymethylcellulose (CMC)) is 93 % of control; the T/C under setting [3] is 95 % of control; the T/C (dose: 500.0 mg/kg/injection, schedule: Q01DX Z (ip), vehicle: carboxymethylcellulose (CMC)) was 90 % of control; the T/C (dose: 1000.0 mg/kg/injection, schedule: Q01DX Z (ip), vehicle: carboxymethylcellulose (CMC)) is 90 % of control; the T/C (dose: 125.0 micrograms/kg/injection, schedule: Q01DX009 (ip), vehicle: saline) is 101 % of control. The T/C runs as follows: (dose: 250.0 micrograms/kg/injection, schedule: Q01DX009 (ip), vehicle: saline) 98 % of control; (dose: 500.0 micrograms/kg/injection, schedule: Q01DX009 (ip), vehicle: saline) 98 % of control; (dose: 1000.0 micrograms/kg/injection, schedule: Q01DX009 (ip), vehicle: saline) 107 % of control.
